Laboratory results from a melting point compilation (Tetko et al.; mined from patent text by program, amines drawn as free bases though some values may be those of a salt).

Structure (SMILES)	melting point
CC(=O)Nc1ccc2c(c1)cc(C(=O)c1ccc(F)cc1)n2C	213 to 215 °C
C#Cc1cccc(Oc2ccc([N+](=O)[O-])c([N+](=O)[O-])c2)c1	68 to 69 °C
Nc1cc(-c2ccccc2)nn1-c1c(Cl)cc(C(F)(F)F)cc1Cl	142 °C
CN(C)c1ccc(-c2cc(=S)ss2)nn1	265 °C
O=C(Nc1ccccc1Cl)c1ccccc1SSc1ccccc1C(=O)Nc1ccccc1Cl	247 to 249 °C
Nc1sc2c(c1C(=O)c1ccc(Br)s1)CCC2	154 to 156 °C
OC1CSC(Oc2cc(-c3cncnc3)cnc2F)C(O)C1O (stereo unspecified)	204 to 205 °C
CC(C)(C)OC(=O)N[C@@]1(C(=O)OC(C)(C)C)C[C@@H](F)[C@H]2[C@H](C(=O)OC(C)(C)C)[C@H]21	140 to 143 °C
Cc1cc(I)cc2[nH]c(C(=O)O)cc(=O)c12	294 °C
OC(CCNC1=NCCCN1)c1ccccc1 (stereo unspecified)	130 to 135 °C
C[C@@H]1C[C@](C)(O)[C@H](C)N1c1ccc(C#N)c(F)c1	125 to 128 °C
O=C(c1cccs1)c1cccc2cc[nH]c12	129 to 130 °C
COC(=O)C1CSC(c2cc3ccccc3[nH]2)=N1 (stereo unspecified)	141 to 142 °C
O=[N+]([O-])c1ccc(CO)cc1OC1CCCC1	54 °C
COc1ccc(OC)c2c(O)c(C#N)cnc12	300 to 305 °C
COc1ccc(C(=O)NC(=O)N2CC2C#N)cc1 (stereo unspecified)	130 to 132 °C
O=C(O)c1cc(NC(C(=O)O)c2ccccc2Cl)c(Cl)cc1Cl (stereo unspecified)	210 °C
COC(=O)C(=O)CC(=O)c1cc(F)c(OC)c(F)c1	185 to 190 °C
COc1cc(OC)nc(NC(=O)NS(=O)(=O)c2ncccc2C(CCl)OC(C)=O)n1 (stereo unspecified)	159 to 161 °C
COc1ccc(CN2C(=O)NC(=O)C2O)cc1OC (stereo unspecified)	143 to 144 °C

Structure (SMILES)	melting point
CCOC(=O)c1cn(-c2nncs2)c2cc(F)c(F)cc2c1=O	235 to 238 °C
CN(C)Cc1ccc(-c2cc3ncc(C#N)c(Cl)c3s2)cc1	166 to 168 °C
COP(=O)(CCC(C)(C)c1cc(O)c(C(C)(C)C)cc1O)OC	193 to 195 °C
CC(=O)OC1CC(C)(C)N(OC(=NC2CCCCC2)N(C(C)=O)C2CCCCC2)C(C)(C)C1	125 to 130 °C
O=C(O)COCC(=O)NCCCCCCCNC(=O)OCc1ccccc1	74 to 74.5 °C
Cc1cc(C)c(N)cc1N	170 to 172 °C
Cc1ccc(C(=O)c2ccc(Cc3ccc(NS(C)(=O)=O)cc3C#N)n2C)cc1	171 to 172 °C
CC(C(=O)O)=C1CCC2C3CCC4=CC(=O)CCC4(C)C3CCC12C (stereo unspecified)	266 to 270 °C
O=C(Oc1ccccc1)N1CCN2C(=O)OC(c3ccccc3)(c3ccccc3)C2C1 (stereo unspecified)	189 to 191 °C
N=C(Nc1ccccc1-c1cccc(F)c1)N1CCC(O)CC1	147 to 148 °C
CCN(CC)C(=O)c1c(O)cc(C(F)(F)F)cc1-c1ccc(OC)c(OC)c1	161 °C
CCOC(=O)c1sc(SC)c(C(=O)CC)c1C	114 to 115 °C
CCOC1=C(N(C(C)=O)C(C)C)C(=O)c2cnn(C)c2C1=O	154 to 155 °C
COc1c2c(c(OC)c(OC)c1OC)CC(CCCCCCCCOC(C)=O)C2	47 to 48 °C
O=C(O)c1cc(Cl)ccc1S	192 to 194 °C
OC(CNCCNc1ncnc2[nH]ncc12)COc1ccccc1 (stereo unspecified)	142 to 144 °C
OC1CN(Cc2ccccc2)C1	64.5 to 65.5 °C
Cc1c(C)c2c(c(C)c1O)CCC(C)(COc1ccc(NC(=S)NC(c3ccccc3)c3ccccc3)cc1)O2 (stereo unspecified)	146 to 148 °C
CCOC(=O)c1cn(-c2nc(N)c(F)cc2F)c2c(F)c(F)c(F)c(F)c2c1=O	223 to 230 °C
O=C=Nc1ccc(F)cc1	93 to 94 °C

Structure (SMILES)	melting point
Cc1c(Cl)c(OCC(=O)O)c(Cc2ccc3c(Cl)cccc3c2)c(O)c1C=O	194 to 196 °C
Oc1c(C/C=C/c2ccc(OCc3ccccc3)c(OCc3ccccc3)c2)c(OCc2ccccc2)cc(OCc2ccccc2)c1Cc1ccccc1	93 to 95 °C
CCC12CCC(c3ccc(Cl)cc3)(OC1)OC2	78 °C
OC(c1ccccc1)(c1cc2ccccc2s1)C1CCN(CCc2ccccc2)CC1 (stereo unspecified)	144 to 146 °C
N#Cc1ccc(N2CCC(CCO)C2)c2ccsc12 (stereo unspecified)	109 to 111 °C
CCCCCCc1ccc(-c2ccc(-c3ccc(-c4ccc(-c5ccc(-c6ccc(CCCCCC)o6)o5)o4)o3)o2)o1	261 °C
Cc1cc(SCc2sc(-c3ccc(C(F)(F)F)cc3)nc2C)cc(C)c1OCC(=O)O	157 to 158 °C
Cn1nc(-c2c(Cl)cc(C(F)(F)F)cc2Cl)cc1N	161 to 163 °C
N#CCCc1cc(C(=O)O)cc(S(N)(=O)=O)c1Oc1ccccc1	259 to 262 °C
COc1ccc2cc([C@H](C)C(=O)OCCS(=O)(=O)CCO)ccc2c1	81 to 84 °C
NC(=O)N1CC(Oc2ccc(Cl)cc2)C1	187 to 188 °C
CN(C)C(=S)SC(C[N+](=O)[O-])c1ccc2c(c1)OCO2 (stereo unspecified)	122 to 124 °C
CC1(C)COC(=O)N1c1nc(-c2ccc(C#N)c(F)c2)cs1	204 to 206 °C
CCN1C(=O)C(C(=O)Nc2ccc(F)cc2)c2cc3c(cc21)CC(C)O3 (stereo unspecified)	196 to 197 °C
CN1CCC(c2cccc3ccc(-c4cncnc4)cc23)CC1	122 to 123 °C
CC(C)(C)c1cc(Nc2ccc(C=CC(=O)O)cc2)cc(C(C)(C)C)c1O	199 to 200 °C
Cc1cc(NS(=O)(=O)c2cccs2)c2[nH]c(C(=O)NCCSC(c3ccccc3)(c3ccccc3)c3ccccc3)cc2c1	214 to 215 °C
CCCn1c(=O)c2[nH]c(C3CCCC3)nc2n(CCc2ccc(NC(C)=O)cc2)c1=O	> 270 °C
CCCn1c(=O)c(N=O)c(N)n(Cc2ccccc2)c1=O	208 to 212 °C

Results, then the molecule that gave them:

melting point	Structure (SMILES)
195 to 197 °C	COc1ccc(C(=O)Nc2ccccc2)cc1NCc1ccc(N(C)C)cc1
148 to 150 °C	CSc1ccc(NC(=N)c2ccc(Cl)cc2)cc1
308 °C	CN(C(=O)c1n[nH]c2c(=O)[nH]c3cc(Cl)ccc3c(=O)c12)c1ccccc1
90 to 92 °C	c1ccc2c(c1)Oc1ccccc1C2NCCn1ccnc1
190 to 193 °C	Cc1cc(Nc2ccccc2C(=O)O)n(-c2ccccn2)n1
204 to 207 °C	CC(=O)Nc1ccc2oc([N+](=O)[O-])c(-c3ccccc3)c2c1
140 °C	Cc1cc(-n2ccnc2)c2cccc(OCc3c(Cl)ccc(S(=O)(=O)N4CCC[C@H]4C(=O)NCC4CCN(CCC(=O)O)CC4)c3Cl)c2n1
208 to 210 °C	Clc1cccc(/C=C/C2=CCN(Cc3c[nH]c4ncccc34)CC2)c1
198 to 199 °C	N#Cc1ccc(-c2cc(-c3cc(Br)ccc3Cl)no2)cc1
157 to 159 °C	O=c1cc(-c2ccc(OCCO)cc2)oc2ncccc12
211 to 213 °C	CCC(CC)CNC(=O)c1ccc(CN2C(=O)C3(COc4cc5c(cc43)CCO5)c3ccccc32)cc1 (stereo unspecified)
125 to 126 °C	CC(C)Cc1oc(-c2ccc(F)cc2)nc1CC(=O)O
163 to 165 °C	Cc1oc(-c2ccccc2)nc1CCOc1ccc(CC(F)(C(=O)O)c2ccccc2)cc1 (stereo unspecified)
173 to 174 °C	Cc1ccccc1N1CCc2c(N)nc3c(C)cccc3c21
234 °C	Cc1nccc2c3ccc(O)cc3n(Cc3ccccc3)c12
128 to 131 °C	CCc1nc2c(cnn2CC)c(NC2CCOCC2)c1CNC(=O)c1cccc(C(=O)NCc2ccc(F)c(-c3cccc(CN4CCCCC4)c3)c2)c1
259 to 261 °C	CC(C)(C)c1ccc(C(=O)NN=Cc2c(O)ccc3ccccc23)cc1
85 °C	O=C(OCCOCc1ccccc1)c1cc(Oc2ccc(C(F)(F)F)cc2Cl)ccc1[N+](=O)[O-]
161 to 162 °C	CCN(CC)CCOc1ccc(-c2oc3ccc(Cl)cc3c2C(=O)c2cc(C)cc(C)c2)cc1

melting point	Structure (SMILES)
166 to 167 °C	Cc1cc(C2N(c3ccccc3)CCN2c2ccccc2)cc(C)c1O
230 to 235 °C	COc1ccc(-c2cnn3c(N)c(-c4ccc(F)c(F)c4)c(C)nc23)cc1OC
239 to 240 °C	O=c1c(O)c(-c2ccc3c(c2)OC(c2ccccc2)(c2ccccc2)O3)oc2cc(O)cc(O)c12
107 to 108 °C	O=C1C=C(Oc2ccc(Oc3ccccc3)cc2)C(O)O1 (stereo unspecified)
184 to 188 °C	Cc1cc(C)c2cccc(OCc3c(Cl)ccc(S(=O)(=O)N4CCC[C@H]4C(=O)NCCCNC(=O)Cc4ccc(C=NN)cc4)c3Cl)c2n1
78 to 79 °C	CCc1nccn1-c1nc(-c2ccc(Cl)cc2)c(CCCOc2ccccc2OC)o1
78.5 to 79.5 °C	CCOC(=O)N1Cc2ccccc2C(Oc2ccc(Cl)cc2)C1 (stereo unspecified)
85 °C	CC(C)(C)OC(=O)C=Cc1ccc(NC(=O)C=C2CC(C(=O)OCc3ccccc3)Nc3cc(Cl)cc(Cl)c32)cc1 (racemic)
214 to 216 °C	CS(=O)(=O)c1ccc(-c2cnn(-c3ccc(Cl)cc3)c(=O)c2-c2ccc(F)cc2)cc1
145 to 146 °C	Cc1oc(-c2ccccc2)nc1CCC(=O)c1ccc(CC2SC(=O)NC2=O)cc1 (stereo unspecified)
104 to 105 °C	COc1ccc(C(OCC2(COS(=O)(=O)c3ccc(C)cc3)OC(n3ccc(=O)[nH]c3=O)C(O)C2O)(c2ccccc2)c2ccc(OC)cc2)cc1 (stereo unspecified)
118 °C	CCN(CC)C(=O)c1nn(-c2ccc(OC(F)(F)F)cc2)c2cccc(F)c2c1=O
128 to 130 °C	C#CC1N(C(=O)Oc2ccccc2)c2ccc(OCc3ccccc3[N+](=O)[O-])cc2C23OC12CCCC3=O (stereo unspecified)
238 to 240 °C	O=C1CC(c2cccc(-c3nc(CO)cs3)c2)=Nc2ccc(-n3cccc3)cc2N1
163 to 165 °C	COC(=O)c1nn(S(=O)(=O)c2ccc(C)cc2)c2ccccc12
101 to 102 °C	COc1ccc(C(=O)N(C)C)c(-c2ccccc2)c1OC
82 to 84 °C	CCOC(=O)C(C)(C)CCCOc1ccc(OCCn2c(=O)sc3cc(C(=O)c4ccccc4)ccc32)cc1
122 to 125 °C	COc1ccccc1N1CCN(CC(O)COc2ccc3cc(C(C)=O)oc3c2)CC1 (stereo unspecified)
